System: Female C57BL/6J mice
Assay: In vivo toxicity: hematology
Parameters: lymphocytes (% WBC) / granulocytes (% WBC): concentration or dose not given beside the values
Description: In vivo toxicity of MithA and MANP. Cohorts of n=6-7 C57BL/6J females, 8-10 wko were randomized to receive either intravenous or intraperitoneal administration of saline control vehicle, blank polymer, MithA, or MANP as described in TABLES 2A and 2B. Body weight loss exceeding 20%, death, morbidity, changes in behavior, and any other sign of local or systemic toxicity were recorded.
For hematology, blood was collected 24 h after the last dose by venipuncture of the tail or mandibular veins. Blood (>100 uL) was transferred to Sarstedt EDTA tubes and held on ice until differential complete blood count was performed using Abaxis VetScan HM2 hematology analyzer (Union City, Calif.). Samples were analyzed within 8 hours of collection. Giemsa-stained blood smears were also obtained for manual differentiation of granulocytes, as the instrument is not able to discriminate neutrophils, eosinophils, or basophils due to inefficient lysis of mouse granulocytes by this system.

[1] = 5x2 mg/kg i.v., in comparison to saline vehicle

## CO[C@H](C(=O)[C@@H](O)[C@@H](C)O)[C@@H]1Cc2cc3cc(O[C@H]4C[C@@H](O[C@H]5C[C@@H](O)[C@H](O)[C@@H](C)O5)[C@H](O)[C@@H](C)O4)c(C)c(O)c3c(O)c2C(=O)[C@H]1O[C@H]1C[C@@H](O[C@H]2C[C@@H](O[C@H]3C[C@](C)(O)[C@H](O)[C@@H](C)O3)[C@@H](O)[C@@H](C)O2)[C@H](O)[C@@H](C)O1 [MithA, (2S,3S)-2-[(2S,4R,5R,6R)-4-[(2S,4R,5S,6R)-4-[(2S,4S,5R,6R)-4,5-dihydroxy-4,6-dimethyloxan-2-yl]oxy-5-hydroxy-6-methyloxan-2-yl]oxy-5-hydroxy-6-methyloxan-2-yl]oxy-3-[(1 S,3S,4R)-3,4-dihydroxy-1-methoxy-2-oxopentyl]-6-[(2S,4R,5R,6R)-4-[(2S,4R,5S,6R)-4,5-dihydroxy-6-methyloxan-2-yl]oxy-5-hydroxy-6-methyloxan-2-yl]oxy-8,9-dihydroxy-7-methyl-3,4-dihydro-2H-anthracen-1-one]
5x2 mg/kg (eq.) i.v.
  thrombocytopenia / platelet dysfunction: displayed thrombocytopenia
[1]
  decrease of plateletcrit (%): 3.4 fold
  decrease of total platelet count: 3.6 fold
5x4 mg/kg i.p.
  red blood cell (RBC) parameters: no significant changes
5x4 mg/kg i.p., relative to controls
  total white blood cell (WBC) count: no significant difference
5x4 mg/kg i.p., vs saline (P=0.001)
  granulocytes (% Gran): increased
5x4 mg/kg i.p., vs saline (p<0.0001)
  lymphocytes (% LYM): decreased
5x4 mg/kg i.p., vs saline (p=0.0187)
  monocytes (% MON): increased
5xmg/kg i.v., compared to saline vehicle
  lymphocytes (% WBC): reduced
5xmg/kg i.v., compared to saline vehicle (p<0.0001)
  granulocytes (% WBC): increased
Five i.v. injections on alternating days, between treatment groups
  RBC parameters: No changes
Single i.p. 4 mg/kg, vs saline
  plateletcrit: significant reductions
Single i.p. 4 mg/kg, vs saline (p=0.002)
  mean corpuscular hemoglobin: significant reductions
Single i.p. 4 mg/kg, vs saline (p=0.0251)
  total platelet count: significant reductions
